Measurements from PMC5454592, “Pharmacological and Toxicological Properties of the Potent Oral γ-Secretase Modulator BPN-15606” (The Journal of Pharmacology and Experimental Therapeutics, 2017).

Key:
PK in mouse (i.v./po) = format: in vivo; settings: male, plasma, CD-1 mice, 5 mg/kg po vs 1 mg/kg i.v.
Method: Male CD-1 mice and male Sprague–Dawley rats were administered a single dose of BPN-15606 by i.v. or oral gavage (po) dose routes to assess oral bioavailability. Mice and rats received BPN-15606 as a single i.v. dose at 1 mg/kg (n = 5) or a single po dose at 5 mg/kg (n = 5). Blood was collected from mice and rats at 5 (i.v. only), 15, and 30 minutes, and 1, 2, 4, 8, and 12 hours postdose for processing to plasma. For mice, brains were collected from both dose groups (i.v. and po) at 1, 4, 8, and 12 hours postdose. For rats, brains were collected from those same animals at the 12-hour time point only. […]
Data were subjected to noncompartmental analysis using WinNonlin Phoenix Model 200 (for extravascular administration) or Model 201 (for i.v. bolus administration) and the sparse sampling feature; a uniform weighting factor was applied to each data set. Time to maximum plasma concentration (Tmax) and maximum plasma concentration (Cmax) values were determined directly from the data. Area under the plasma concentration–time curve to the last time point (AUClast) values were calculated using the log/linear trapezoidal (i.v. dose) or linear up/log down trapezoidal (po dose). Values were calculated using the plasma data from composite groups. […] The volume of distribution at steady state and clearance were calculated using the i.v. group data. […]

in vivo = settings: cynomolgus monkey
Method: The objectives of this study were to determine the MTD of BPN-15606, characterize potential toxicity, and calculate toxicokinetic parameters of BPN-15606 in adult male and female cynomolgus macaques following daily po dose administration at a near-MTD dose of BPN-15606 for 7 consecutive days. In the dose escalation phase to establish the MTD (phase A), male and female cynomolgus macaques (n = 2/sex) were administered single doses of BPN-15606 at 3, 10, 30, 100, and 300 mg/kg, with 2 to 4 days between each dose escalation (Fig. 10). […] The plasma drug concentrations at the approximate Tmax increased in a dose-dependent manner. […] Comprehensive evaluation of clinical pathology parameters (clinical chemistry, hematology), gross pathology, and histopathologic parameters was carried out at SRI International, according to their standardized protocols. Tissues examined histopathologically included the following: liver, lung, stomach, duodenum, colon, spleen, pancreas, thymus, heart, brain, and kidney.

COc1nc(-c2cc(C)c(N[C@@H](C)c3ccc(F)cc3)nn2)ccc1-n1cnc(C)c1 [BPN-15606, (S)-N-(1-(4-fluorophenyl)ethyl)-6-(6-methoxy-5-(4-methyl-1H-imidazol-1-yl)pyridin-2-yl)-4-methylpyridazin-3-amine]
bioavailability (PK in mouse (i.v./po)): > 60%
NOAEL (in vivo; both sexes): 30 mg/kg
MTD (in vivo; both sexes, MTD after a single-dose administration): 300 mg/kg
NOEL after a single dose (in vivo; both): 30 mg/kg
clinical signs after single doses (in vivo; both): limited to emesis in the 100 and 300 mg/kg groups
clinical pathology parameters after single-dose administration (in vivo): no apparent changes
clinical signs on repeat dosing (in vivo; po, 300 mg/kg): emesis, reduced appetite, and reduced stool
gross findings at necropsy (in vivo; po, 300 mg/kg): no gross findings at necropsy
hepatic histopathological findings (in vivo; po, 300 mg/kg): minimal sinusoidal leukocytosis in two male monkeys and moderate focal fatty infiltration in one female monkey
renal histopathological findings (in vivo; po, 300 mg/kg): mild to moderate proximal tubular necrosis, casts, and dilation with cortical and medullary subacute inflammation
